Source: ChEMBL document CHEMBL1687748 (Antimicrob Agents Chemother, 2009)
≈ marks a conversion by molar mass, not a printed value.

What was measured:
Assay type in all cases: functional
Bacillus anthracis [1] = assay: Growth rate constant of spore-phase cells going to vegetative phase in toxin and capsule gene-deficient Bacillus anthracis Sterne in hollow-fiber pharmacodynamic infection model at 200 mg administered as continuous infusion by Bayesian method
Bacillus anthracis [2] = assay: Growth rate constant of vegetative-phase cells going to spore phase in toxin and capsule gene-deficient Bacillus anthracis Sterne in hollow-fiber pharmacodynamic infection model at 100 mg administered as continuous infusion by Bayesian method
Bacillus anthracis [3] = assay: Hill constant for compound-sensitive toxin and capsule gene-deficient Bacillus anthracis Sterne in hollow-fiber pharmacodynamic infection model at 250 mg, qd by Bayesian method
Bacillus anthracis [4] = assay: Total spore counts of toxin and capsule gene-deficient Bacillus anthracis Sterne in hollow-fiber pharmacodynamic infection model at 250 mg, qd by Bayesian method
Bacillus anthracis [5] = assay: Total sensitive organism counts of toxin and capsule gene-deficient Bacillus anthracis Sterne in hollow-fiber pharmacodynamic infection model at 150 mg administered as continuous infusion by Bayesian method
Bacillus anthracis [6] = assay: Total spore counts of toxin and capsule gene-deficient Bacillus anthracis Sterne in hollow-fiber pharmacodynamic infection model at 150 mg administered as continuous infusion by Bayesian method
Bacillus anthracis [7] = assay: Total spore counts of toxin and capsule gene-deficient Bacillus anthracis Sterne in hollow-fiber pharmacodynamic infection model at 100 mg, qd by Bayesian method
Bacillus anthracis [8] = assay: Growth rate constant for compound-sensitive toxin and capsule gene-deficient Bacillus anthracis Sterne in hollow-fiber pharmacodynamic infection model at 50 mg, qd by Bayesian method
Bacillus anthracis [9] = assay: Growth rate constant for compound-sensitive toxin and capsule gene-deficient Bacillus anthracis Sterne in hollow-fiber pharmacodynamic infection model at 100 mg administered as continuous infusion by Bayesian method
Bacillus anthracis [10] = assay: Hill constant for compound-sensitive toxin and capsule gene-deficient Bacillus anthracis Sterne in hollow-fiber pharmacodynamic infection model at 50 mg, qd by Bayesian method
Bacillus anthracis [11] = assay: Total spore counts of toxin and capsule gene-deficient Bacillus anthracis Sterne in hollow-fiber pharmacodynamic infection model administered as continuous infusion
Bacillus anthracis [12] = assay: Growth rate constant of vegetative-phase cells going to spore phase in toxin and capsule gene-deficient Bacillus anthracis Sterne in hollow-fiber pharmacodynamic infection model administered for every 24 hrs
Bacillus anthracis [13] = assay: Hill constant for compound-sensitive toxin and capsule gene-deficient Bacillus anthracis Sterne in hollow-fiber pharmacodynamic infection model at 100 mg, qd by Bayesian method
Bacillus anthracis [14] = assay: Growth rate constant of vegetative-phase cells going to spore phase in toxin and capsule gene-deficient Bacillus anthracis Sterne in hollow-fiber pharmacodynamic infection model administered as continuous infusion
Bacillus anthracis [15] = assay: Growth rate constant for compound-sensitive toxin and capsule gene-deficient Bacillus anthracis Sterne in hollow-fiber pharmacodynamic infection model at 250 mg administered as continuous infusion by Bayesian method
Bacillus anthracis [16] = assay: Growth rate constant of spore-phase cells going to vegetative phase in toxin and capsule gene-deficient Bacillus anthracis Sterne in hollow-fiber pharmacodynamic infection model at 100 mg, qd by Bayesian method
Bacillus anthracis [17] = assay: Total sensitive organism counts of toxin and capsule gene-deficient Bacillus anthracis Sterne in hollow-fiber pharmacodynamic infection model administered for every 24 hrs
Bacillus anthracis [18] = assay: Total sensitive organism counts of toxin and capsule gene-deficient Bacillus anthracis Sterne in hollow-fiber pharmacodynamic infection model at 100 mg, qd by Bayesian method
Bacillus anthracis [19] = assay: Total spore counts of toxin and capsule gene-deficient Bacillus anthracis Sterne in hollow-fiber pharmacodynamic infection model at 150 mg, qd by Bayesian method
Bacillus anthracis [20] = assay: Total spore counts of toxin and capsule gene-deficient Bacillus anthracis Sterne in hollow-fiber pharmacodynamic infection model at 200 mg, qd by Bayesian method
Bacillus anthracis [21] = assay: Antimicrobial activity against toxin and capsule gene-deficient Bacillus anthracis Sterne after 24 hrs by macrobroth dilution method
Bacillus anthracis [22] = assay: Total spore counts of toxin and capsule gene-deficient Bacillus anthracis Sterne in hollow-fiber pharmacodynamic infection model at 200 mg administered as continuous infusion by Bayesian method
Bacillus anthracis [23] = assay: Kill rate constant for compound-sensitive toxin and capsule gene-deficient Bacillus anthracis Sterne in hollow-fiber pharmacodynamic infection model administered as continuous infusion
Bacillus anthracis [24] = assay: Total sensitive organism counts of toxin and capsule gene-deficient Bacillus anthracis Sterne in hollow-fiber pharmacodynamic infection model at 100 mg administered as continuous infusion by Bayesian method
Bacillus anthracis [25] = assay: Total spore counts of toxin and capsule gene-deficient Bacillus anthracis Sterne in hollow-fiber pharmacodynamic infection model administered for every 24 hrs
Bacillus anthracis [26] = assay: Growth rate constant for compound-sensitive toxin and capsule gene-deficient Bacillus anthracis Sterne in hollow-fiber pharmacodynamic infection model administered for every 24 hrs
Bacillus anthracis [27] = assay: Growth rate constant of vegetative-phase cells going to spore phase in toxin and capsule gene-deficient Bacillus anthracis Sterne in hollow-fiber pharmacodynamic infection model at 250 mg administered as continuous infusion by Bayesian method
Bacillus anthracis [28] = assay: Kill rate constant for compound-sensitive toxin and capsule gene-deficient Bacillus anthracis Sterne in hollow-fiber pharmacodynamic infection model at 250 mg administered as continuous infusion by Bayesian method
Bacillus anthracis [29] = assay: Total sensitive organism counts of toxin and capsule gene-deficient Bacillus anthracis Sterne in hollow-fiber pharmacodynamic infection model at 250 mg administered as continuous infusion by Bayesian method
Bacillus anthracis [30] = assay: Growth rate constant for compound-sensitive toxin and capsule gene-deficient Bacillus anthracis Sterne in hollow-fiber pharmacodynamic infection model at 150 mg, qd by Bayesian method
Bacillus anthracis [31] = assay: Growth rate constant of vegetative-phase cells going to spore phase in toxin and capsule gene-deficient Bacillus anthracis Sterne in hollow-fiber pharmacodynamic infection model at 150 mg administered as continuous infusion by Bayesian method
Bacillus anthracis [32] = assay: Total sensitive organism counts of toxin and capsule gene-deficient Bacillus anthracis Sterne in hollow-fiber pharmacodynamic infection model administered as continuous infusion
Bacillus anthracis [33] = assay: Growth rate constant of spore-phase cells going to vegetative phase in toxin and capsule gene-deficient Bacillus anthracis Sterne in hollow-fiber pharmacodynamic infection model administered for every 24 hrs
Bacillus anthracis [34] = assay: Hill constant for compound-sensitive toxin and capsule gene-deficient Bacillus anthracis Sterne in hollow-fiber pharmacodynamic infection model administered for every 24 hrs
Bacillus anthracis [35] = assay: Hill constant for compound-sensitive toxin and capsule gene-deficient Bacillus anthracis Sterne in hollow-fiber pharmacodynamic infection model at 150 mg, qd by Bayesian method
Bacillus anthracis [36] = assay: Kill rate constant for compound-sensitive toxin and capsule gene-deficient Bacillus anthracis Sterne in hollow-fiber pharmacodynamic infection model at 200 mg, qd by Bayesian method
Bacillus anthracis [37] = assay: Kill rate constant for compound-sensitive toxin and capsule gene-deficient Bacillus anthracis Sterne in hollow-fiber pharmacodynamic infection model administered for every 24 hrs

Q: `COc1c(N2C[C@@H]3CCCN[C@@H]3C2)c(F)cc2c(=O)c(C(=O)O)cn(C3CC3)c12` [MOXIFLOXACIN] was tested. Which Activity (Bacillus anthracis [1]) did it give?
A: 6.65 h⁻¹

Q: And the Activity (Bacillus anthracis [2])?
A: 1.17 h⁻¹

Q: What about the Activity (Bacillus anthracis [3]) of the same molecule?
A: 1 h⁻¹

Q: And the CFU/ml (Bacillus anthracis [4])?
A: 2360000

Q: And the CFU/ml (Bacillus anthracis [5])?
A: 23500000

Q: And the CFU/ml (Bacillus anthracis [6])?
A: 1880000

Q: What about the CFU/ml (Bacillus anthracis [7]) of the same molecule?
A: 1900000

Q: What about the Activity (Bacillus anthracis [8]) of the same molecule?
A: 5.14 h⁻¹

Q: What about the Activity (Bacillus anthracis [9]) of the same molecule?
A: 8.26 h⁻¹

Q: And the Activity (Bacillus anthracis [10])?
A: 5.84 h⁻¹

Q: And the CFU/ml (Bacillus anthracis [11])?
A: 1880000

Q: What about the Activity (Bacillus anthracis [12]) of the same molecule?
A: 4.96 h⁻¹

Q: What about the Activity (Bacillus anthracis [13]) of the same molecule?
A: 30 h⁻¹

Q: What about the Activity (Bacillus anthracis [14]) of the same molecule?
A: 1.2 h⁻¹

Q: What about the Activity (Bacillus anthracis [15]) of the same molecule?
A: 8.25 h⁻¹

Q: What about the Activity (Bacillus anthracis [16]) of the same molecule?
A: 25.9 h⁻¹

Q: What about the CFU/ml (Bacillus anthracis [17]) of the same molecule?
A: 41200000

Q: What about the CFU/ml (Bacillus anthracis [18]) of the same molecule?
A: 28000000

Q: And the CFU/ml (Bacillus anthracis [19])?
A: 1890000

Q: What about the CFU/ml (Bacillus anthracis [20]) of the same molecule?
A: 2420000

Q: What about the MIC (Bacillus anthracis [21]) of the same molecule?
A: 0.06 µg/mL (≈ 0.149 µM)

Q: And the CFU/ml (Bacillus anthracis [22])?
A: 1870000

Q: What about the Activity (Bacillus anthracis [23]) of the same molecule?
A: 6.41 h⁻¹

Q: What about the CFU/ml (Bacillus anthracis [24]) of the same molecule?
A: 20600000

Q: And the CFU/ml (Bacillus anthracis [25])?
A: 1740000

Q: What about the Activity (Bacillus anthracis [26]) of the same molecule?
A: 8.24 h⁻¹

Q: And the Activity (Bacillus anthracis [27])?
A: 5.18 h⁻¹

Q: And the Activity (Bacillus anthracis [28])?
A: 8.28 h⁻¹

Q: And the CFU/ml (Bacillus anthracis [29])?
A: 21600000

Q: And the Activity (Bacillus anthracis [30])?
A: 7.42 h⁻¹

Q: What about the Activity (Bacillus anthracis [31]) of the same molecule?
A: 4.94 h⁻¹

Q: And the CFU/ml (Bacillus anthracis [32])?
A: 38500000

Q: What about the Activity (Bacillus anthracis [33]) of the same molecule?
A: 7.31 h⁻¹

Q: And the Activity (Bacillus anthracis [34])?
A: 29.8 h⁻¹

Q: What about the Activity (Bacillus anthracis [35]) of the same molecule?
A: 30 h⁻¹

Q: What about the Activity (Bacillus anthracis [36]) of the same molecule?
A: 4.29 h⁻¹

Q: What about the Activity (Bacillus anthracis [37]) of the same molecule?
A: 8.24 h⁻¹
